In brackets after ≈: the same amount, converted by molar mass. Like-named read-outs stand apart in the source and are kept apart here.
How the values were obtained:
[1] = tested on: MRSA (NRS384 strain of USA300); experiment: MIC determination for extracellular bacteria in liquid culture; assay type: cell-based; details: Staphylococcus aureus, read-out: Extracellular MRSA MIC
Experimental: The MIC for extracellular bacteria was determined by preparing serial 2-fold dilutions of the antibiotic in Tryptic Soy Broth. Dilutions of the antibiotic were made in quadruplicate in 96 well culture dishes. MRSA (NRS384 strain of USA300) was taken from an exponentially growing culture and diluted to 1×10^4 CFU/mL. The bacteria was cultured in the presence of antibiotic for 18-24 hours with shaking at 37° C. and bacterial growth was determined by reading the Optical Density (OD) at […]. The MIC was determined to be the dose of antibiotic that inhibited bacterial growth by >90%.
(§1) For extracellular bacteria, MRSA was cultured overnight in Tryptic Soy Broth, and the MIC was determined to be the minimum antibiotic dose that prevented growth. For intracellular bacteria, murine peritoneal macrophages were infected with MRSA and cultured in the presence of gentamycin to kill extracellular bacteria. Test antibiotics were added to the culture medium one day post infection, and the total number of surviving intracellular bacteria was determined 24 hours later. The expected serum concentrations for clinically relevant antibiotics was reported in Antimicrobial Agents, Andre Bryskier. ASM Press, Washington D.C. (2005).

[2] = tested on: intracellular MRSA sequestered inside murine macrophages; experiment: MIC determination for intracellular bacteria inside murine peritoneal macrophages; assay type: cell-based, Staphylococcus aureus; details: for MIC: Staphylococcus aureus, MRSA, read-out: Intracellular MRSA MIC; for killing of MRSA sequestered inside macrophages: macrophages exposed to clinically achievable concentrations
Experimental: Intracellular MIC was determined on bacteria that were sequestered inside mouse peritoneal macrophages (see below for generation of murine peritoneal macrophages). Macrophages were plated in 24 well culture dishes at a density of 4×10^5 cells/mL and infected with MRSA at a ratio of 10-20 bacteria per macrophage. Macrophage cultures were maintained in growth media supplemented with 50 ug/mL of gentamycin (an antibiotic that is active only on extracellular bacteria) to inhibit the growth of extracellular bacteria and test antibiotics were added to the growth media 1 day after infection. The survival of intracellular bacteria was assessed 24 hours after addition of the antibiotics. Macrophages were lysed with Hanks Buffered Saline Solution supplemented with 0.1% Bovine Serum Albumin and 0.1% Triton-X, and serial dilutions of the lysate were made in Phosphate Buffered Saline solution containing 0.05% Tween-20. The number of surviving intracellular bacteria was determined by plating on Tryptic Soy Agar plates with 5% defibrinated sheep blood.
Peritoneal macrophages were isolated from the peritoneum of 6-8 week old Balb/c mice (Charles River Laboratories, Hollister, Calif.). To increase the yield of macrophages, mice were pre-treated by intraperitoneal injection with 1 mL of thioglycolate media (Becton Dickinson). The thioglycolate media was prepared at a concentration of 4% in water, sterilized by autoclaving, and aged for 20 days to 6 months prior to use. Peritoneal macrophages were harvested 4 days post treatment with thioglycolate by washing the peritoneal cavity with cold phosphate buffered saline. Macrophages were plated in Dulbecco's Modified Eagle Medium (DMEM) supplemented with 10% Fetal Calf Serum, and 10 mM HEPES, without antibiotics, at a density of 4×10^5 cells/well in 24 well culture dishes. Macrophages were cultured over night to permit adherence to the plate. This assay was also utilized to test intracellular killing in non-phagocytic cell types. MG63 (CRL-1427) and A549 (CCL185) cell lines were obtained from ATCC and maintained in RPMI 1640 tissue culture media supplemented with 10 mM Hepes and 10% Fetal Calf Serum (RPMI-10). HUVEC cells were obtained from Lonza and maintained in EGM Endothelial Cell Complete Media (Lonza, Walkersville, Md.).
as §1

[3] = expected serum concentration, from Antimicrobial Agents, Bryskier (2005); cited from earlier work
[4] = tested on: S. aureus (USA300) persister cells; experiment: Killing of persister cells by free antibiotics; assay type: cell-based, Staphylococcus aureus; details: ciprofloxacin-treated cultures, second antibiotic 1 ug/ml
Experimental: Killing of persisters cells by free antibiotics: S. aureus (USA300) was taken from an overnight stationary phase culture, washed once in Tryptic Soy Broth (TSB) and then adjusted to a final concentration of 1×10^7 CFU/ml in a total volume of 10 mL of either TSB or TSB with ciprofloxicin (0.05 mM). Cultures were incubated with shaking at 37° C. for 6 hours and then the second antibiotic, either rifampicin (1 ug/ml) or another rifamycin-type antibiotic (1 ug/ml) was added. At the indicated times, samples were removed from each culture, washed once with PBS to remove the antibiotic and re-suspended in PBS. The total number of surviving bacteria was determined by plating serial dilutions of the bacteria on agar plates. At the final time point the remainder of each culture was collected and plated.

[5] = tested on: MRSA; experiment: In vitro transfer of infection to MG63 osteoblasts / HBMEC in the presence of vancomycin; assay type: cell-based, Staphylococcus aureus
Experimental: 6-8 week old female A/J mice (Jackson Lab) were infected with 1×10^8 CFU of the NRS384 strain of USA300 by peritoneal injection. The peritoneal wash was harvested 1 day post infection, and the infected peritoneal cells were treated with 50 ug/mL of lysostaphin diluted in Hepes Buffer supplemented with 0.1% BSA (HB buffer) for 30 minutes at 37° C. Peritoneal cells were then washed 2x in ice cold HB buffer. The peritoneal cells were diluted to 1×10^6 cells/mL in RPMI 1640 tissue culture media supplemented with 10 mM Hepes and 10% Fetal Calf Serum, and 5 ug/mL vancomycin. Free MRSA from the primary infection was stored overnight at 4° C. in Phosphate Buffered Saline Solution as a control for extracellular bacteria that were not subject to neutrophil killing.
MG63 cell line was obtained from ATCC (CRL-1427) and maintained in RPMI 1640 tissue culture media supplemented with 10 mM Hepes and 10% Fetal Calf Serum (RPMI-10). HBMEC cells (Catalog #1000) and ECM media (catalog#1001) were obtained from SciencCell Research Labs (Carlsbad, Calif.). Cells were plated in 24 well tissue culture plates and cultured to obtain a confluent layer. On the day of the experiment, the cells were washed once in RPMI (without supplements). MRSA or infected peritoneal cells were diluted in complete RPMI-10 and vancomycin was added at 5 ug/mL immediately prior to infection. Peritoneal cells were added to the osteoblasts at 1×10^6 peritoneal cells/mL. A sample of the cells was lysed with 0.1% triton-x to determine the actual concentration of live intracellular bacteria at the time of infection. The actual titer for all infections was determined by plating serial dilutions of the bacteria on Tryptic Soy Agar with 5% defibrinated sheep blood.
MRSA (free bacteria) was seeded in media, media+vancomycin, or media+vancomycin and plated on a monolayer of MG63 osteoblasts (FIG. 1E) or Human Brain Microvascular Endothelial Cells (HBMEC, FIG. 1F). Plates were centrifuged to promote contact of the bacteria with the monolayer. At each time point, the culture supernatant was collected to recover extracellular bacteria or adherent cells were lysed to release intracellular bacteria.

[6] = tested on: USA300; experiment: In vivo transfer of infection model in A/J mice (free vs intracellular bacteria); design: species or system Staphylococcus aureus; details: mice infected i.v. with free or intracellular bacteria, examined 4 days after infection
Experimental: USA300 stocks were prepared for infection from actively growing cultures in tryptic soy broth. Bacteria were washed 3× in phosphate buffered saline (PBS) and aliquots were frozen at −80° C. in PBS 25% glycerol. Intracellular Bacteria Infections: A/J mice were chosen for these experiments because they are easily infected with relatively low doses of MRSA (2×10^6 CFU/mouse). 7 week old female A/J mice were obtained from Jackson Lab and infected by peritoneal injection with 5×10^7 CFU of USA300. Mice were sacrificed 1 day post infection and the peritoneum was flushed with 5 mL of cold PBS. Peritoneal washes were centrifuged for 5 minutes at 1,000 rpm at 4° C. in a table top centrifuge. The cell pellet containing peritoneal cells was collected and cells were treated with 50 ug/mL of lysostaphin (Cell Sciences Inc. Canton Mass., CRL 309C) for 20 minutes at 37° C. to kill contaminating extracellular bacteria. Peritoneal cells were washed 3x in ice cold PBS to remove the lysostaphin. […]
These experiments compared the virulence of intracellular bacteria versus an equivalent dose of free-living planktonic bacteria, and determined whether the intracellular bacteria are able to establish infection in the presence of vancomycin in vivo. […]

[7] = extracellular bacteria grown in liquid culture (Tryptic Soy Broth)
[8] = bacteria sequestered inside murine macrophages, antibiotics added one day post infection, survivors counted 24 hours later

| SMILES | MIC [1] [µg/mL] | MIC ([2]; 24 h) [µg/mL] | killing of MRSA sequestered inside macrophages [2] | Serum Cmax [3] [µg/mL] | MIC [1, 7] [µg/mL] | MIC [2, 8] [µg/mL] | higher dose to eliminate intracellular MRSA compared to the dose required to inhibit growth (MIC) of planktonic bacteria ([2]; intracellular vs planktonic MRSA USA300) | effect on viability of persister cells [4] | increase of intracellular S. aureus over a 24 hour period ([5]; MG63 cells, primary human brain endothelial cells, A549 cells, constant exposure to vancomycin) [fold] | survival of intracellular MRSA in the leukocytes ([5]; MRSA sequestered inside peritoneal cells, vancomycin 5 ug/mL) | surviving bacteria associated with the MG63 cells one day after infection ([5]; planktonic bacteria plated on MG63 osteoblasts, vancomycin 5 ug/mL) | killing of planktonic bacteria exposed to vancomycin alone ([5]; vancomycin 5 ug/mL, one day in culture) | establishment of infection (kidney, brain) under vancomycin therapy [6] |
| --- | --- | --- | --- | --- | --- | --- | --- | --- | --- | --- | --- | --- | --- |
| CCCCCCCCCC(=O)N[C@@H](Cc1c[nH]c2ccccc12)C(=O)N[C@H](CC(N)=O)C(=O)N[C@@H](CC(=O)O)C(=O)N[C@@H]1C(=O)NCC(=O)N[C@@H](CCCN)C(=O)N[C@@H](CC(=O)O)C(=O)N[C@H](C)C(=O)N[C@@H](CC(=O)O)C(=O)NCC(=O)N[C@H](CO)C(=O)N[C@@H]([C@H](C)CC(=O)O)C(=O)N[C@@H](CC(=O)c2ccccc2N)C(=O)O[C@@H]1C [Daptomycin] | 4 (≈ 2.47 µM) | > 100 | failed to kill | 60 | – | – | – | – | – | – | – | – | – |
| CC(=O)NC[C@H]1CN(c2ccc(N3CCOCC3)c(F)c2)C(=O)O1 [Linezolid] | – | – | failed to kill | 20 | 0.3 (≈ 0.889 µM) | > 20 | – | – | – | – | – | – | – |
| CO[C@H]1/C=C/O[C@@]2(C)Oc3c(C)c(O)c4c(O)c(c(/C=N/N5CCN(C)CC5)c(O)c4c3C2=O)NC(=O)/C(C)=C\C=C\[C@H](C)[C@H](O)[C@@H](C)[C@@H](O)[C@@H](C)[C@H](OC(C)=O)[C@@H]1C [Rifampicin] | – | – | – | – | 0.004 (≈ 0.00486 µM) | 50 (≈ 60.8 µM) | 6,000 fold | no effect | – | – | – | – | – |
| CN[C@H](CC(C)C)C(=O)N[C@H]1C(=O)N[C@@H](CC(N)=O)C(=O)N[C@H]2C(=O)N[C@H]3C(=O)N[C@H](C(=O)N[C@H](C(=O)O)c4cc(O)cc(O)c4-c4cc3ccc4O)[C@H](O)c3ccc(c(Cl)c3)Oc3cc2cc(c3O[C@@H]2O[C@H](CO)[C@@H](O)[C@H](O)[C@H]2O[C@H]2C[C@](C)(N)[C@H](O)[C@H](C)O2)Oc2ccc(cc2Cl)[C@H]1O [Vancomycin] | 1 (≈ 0.69 µM) | > 100 | failed to kill | 50 | – | – | – | – | ~10 | About 15% | approximately 0.06 % of input | efficiently killed | intracellular bacteria, but not planktonic bacteria, were able to establish infection |

Source: patent US20180021450A1, “ANTI-STAPHYLOCOCCUS AUREUS ANTIBODY RIFAMYCIN CONJUGATES AND USES THEREOF” (Genentech, Inc., priority 2014, published 2018)
